Test results from US7531543B2, “Phenylpiperazine cycloalkanol derivatives and methods of their use” (Wyeth, priority 2003, dated 2009).
Counter-ions that a name gives are not always drawn.

Target: T1, human hNET (Homo sapiens, UniProt P23975)
T1 construct: expressed in transfected cells; host or cells: MDCK-Net6 (MDCK cells stably transfected with hNET)
Test: Norepinephrine (NE) uptake assay in MDCK-Net6 cells
Type: cell-based
Conditions: [3H]NE uptake, MDCK-Net6 cells stably transfected with hNET; for EC50: test range 1 to 10,000 nM; for inhibition at 1 µM: 1 μM test compound
Procedure: MDCK-Net6 cells, stably transfected with human hNET (Pacholczyk, T., R. D. Blakely, and S. G. Amara, Nature, 1991, 350(6316): p. 350-4) were cultured in growth medium containing high glucose DMEM (Gibco, Cat. No. 11995), 10% FBS (dialyzed, heat-inactivated, US Bio-Technologies, Lot FBD1129HI) and 500 µg/ml G418 (Gibco, Cat. No. 10131). Cells were plated at 300,000/T75 flask and cells were split twice weekly. The JAR cell line (human placental choriocarcinoma) was purchased from ATCC (Cat. No. HTB-144). The cells were cultured in growth medium containing RPMI 1640 (Gibco, Cat. No. 72400), 10% FBS (Irvine, Cat. No. 3000), 1% sodium pyruvate (Gibco, Cat. No. 1136) and 0.25% glucose. Cells were plated at 250,000 cells/T75 flask and split twice weekly. For all assays, cells were plated in Wallac 96-well sterile plates (PerkinElmer, Cat. No. 3983498).
Norepinephrine (NE) Uptake Assay
On day 1, cells were plated at 3,000 cells/well in growth medium and maintained in a cell incubator (37° C., 5% CO2). On day 2, growth medium was replaced with 200 μl of assay buffer (25 mM HEPES; 120 mM NaCl; 5 mM KCl; 2.5 mM CaCl2; 1.2 mM MgSO4; 2 mg/ml glucose (pH 7.4, 37° C.)) containing 0.2 mg/ml ascorbic acid and 10 μM pargyline. Plates containing cells with 200 μl of assay buffer were equilibrated for 10 minutes at 37° C. prior to addition of compounds. A stock solution of desipramine was prepared in DMSO (10 mM) and delivered to triplicate wells containing cells for a final test concentration of 1 μM. Data from these wells were used to define non-specific NE uptake (minimum NE uptake). Test compounds were prepared in DMSO (10 mM) and diluted in assay buffer according to test range (1 to 10,000 nM). Twenty-five microliters of assay buffer (maximum NE uptake) or test compound were added directly to triplicate wells containing cells in 200 μl of assay buffer. The cells in assay buffer with test compounds were incubated for 20 minutes at 37° C. To initiate the NE uptake, [^3H]NE diluted in assay buffer (120 nM final assay concentration) was delivered in 25 μl aliquots to each well and the plates were incubated for 5 minutes (37° C.). The reaction was terminated by decanting the supernatant from the plate. The plates containing cells were washed twice with 200 μl assay buffer (37° C.) to remove free radioligand. The plates were then inverted, left to dry for 2 minutes, then reinverted and air-dried for an additional 10 minutes. The cells were lysed in 25 μl of 0.25 N NaOH solution (4° C.), placed on a shake table and vigorously shaken for 5 minutes. After cell lysis, 75 μl of scintillation cocktail was added to each well and the plates were sealed with film tape. The plates were returned to the shake table and vigorously shaken for a minimum of 10 minutes to ensure adequate partitioning of organic and aqueous solutions. The plates were counted in a Wallac Microbeta counter (PerkinElmer) to collect the raw cpm data.
For each experiment, a data stream of cpm values collected from the Wallac Microbeta counter was downloaded to a Microsoft Excel statistical application program. Calculations of EC50 values were made using the transformed-both-sides logistic dose response program written by Wyeth Biometrics Department. The statistical program uses mean cpm values from wells representing maximum binding or uptake (assay buffer) and mean cpm values from wells representing minimum binding or uptake ((1 μM desipramine (hNET) or 1 μM paroxetine (hSERT)). Estimation of the EC50 value was completed on a log scale and the line was fit between the maximum and minimum binding or uptake values. All graphic data representation was generated by normalizing each data point to a mean percent based on the maximum and minimum binding or uptake values. The EC50 values reported from multiple experiments were calculated by pooling the raw data from each experiment and analyzing the pooled data as one experiment.

T1 sequence (P23975 whole entry): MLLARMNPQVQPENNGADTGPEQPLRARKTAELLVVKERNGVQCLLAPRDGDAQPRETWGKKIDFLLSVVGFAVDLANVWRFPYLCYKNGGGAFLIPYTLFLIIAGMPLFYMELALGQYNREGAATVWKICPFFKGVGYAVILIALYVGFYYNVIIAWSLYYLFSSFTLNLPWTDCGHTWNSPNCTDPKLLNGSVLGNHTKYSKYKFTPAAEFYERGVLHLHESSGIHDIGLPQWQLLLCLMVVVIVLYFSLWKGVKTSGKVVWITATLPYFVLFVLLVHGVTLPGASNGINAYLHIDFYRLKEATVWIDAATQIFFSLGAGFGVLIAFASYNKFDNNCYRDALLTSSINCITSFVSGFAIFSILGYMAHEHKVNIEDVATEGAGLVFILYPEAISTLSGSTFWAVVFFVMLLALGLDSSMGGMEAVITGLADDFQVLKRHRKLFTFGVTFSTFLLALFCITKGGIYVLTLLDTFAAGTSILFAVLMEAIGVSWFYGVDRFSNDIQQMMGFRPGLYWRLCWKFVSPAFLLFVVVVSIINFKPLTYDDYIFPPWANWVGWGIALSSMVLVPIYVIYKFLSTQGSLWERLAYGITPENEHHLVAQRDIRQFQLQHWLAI

Row | SMILES | EC50 | inhibition at 1 µM
1 | OC1([C@H](CN2CCNCC2)c2cccc(Cl)c2)CCCCC1 [Example 34, 1-[(1S)-1-(3-chlorophenyl)-2-piperazin-1-ylethyl]cyclohexanol dihydrochloride] | 25 nM | 
2 | OC1([C@@H](CN2CCNCC2)c2cccc(Cl)c2)CCCCC1 [Example 35, 1-[(1R)-1-(3-chlorophenyl)-2-piperazin-1-ylethyl]cyclohexanol dihydrochloride] | 540 nM | 
3 | OC1(C(CN2CCNCC2)c2cccc(Cl)c2)CCCCCCC1 (centres unmarked) [Example 36, 1-[1-(3-chlorophenyl)-2-piperazin-1-ylethyl]cyclooctanol dihydrochloride] |  | 28%
4 | OC1(C(CN2CCNCC2)c2cccc(Br)c2)CCCCCCC1 (centres unmarked) [Example 37, 1-[1-(3-bromophenyl)-2-piperazin-1-ylethyl]cyclooctanol dihydrochloride] |  | 28%

Results, then the compound that gave them:

Row | EC50 | inhibition at 1 µM | SMILES
5 |  | 42% | COc1ccc(C(CN2CCNCC2)C2(O)CCCCCCC2)cc1Br (centres unmarked) [Example 38, 1-[1-(3-bromo-4-methoxyphenyl)-2-piperazin-1-ylethyl]cyclooctanol dihydrochloride]
6 |  | 42% | CN1CCN(CC(c2cccc(Cl)c2)C2(O)CCCCCCC2)CC1 (centres unmarked) [Example 39, 1-[1-(3-chlorophenyl)-2-(4-methylpiperazin-1-yl)ethyl]cyclooctanol dihydrochloride]
7 |  | 44% | CN1CCN(CC(c2cccc(Br)c2)C2(O)CCCCCCC2)CC1 (centres unmarked) [Example 40, 1-[1-(3-bromophenyl)-2-(4-methylpiperazin-1-yl)ethyl]cyclooctanol dihydrochloride]
8 |  | 48% | COc1ccc(C(CN2CCN(C)CC2)C2(O)CCCCCCC2)cc1Br (centres unmarked) [Example 41, 1-[1-(3-bromo-4-methoxyphenyl)-2-(4-methylpiperazin-1-yl)ethyl]cyclooctanol dihydrochloride]
